We go through 45 compounds from ChEMBL document CHEMBL1201862, “PubChem BioAssay data set” (2004).

In general, AC50 refers to the concentration at which the activity in the assay is half-maximal. By CC50 is commonly meant the concentration giving 50% cytotoxicity. A word on the EC50: it is the concentration that produces a half-maximal response.

The source made the active and inactive calls. Bounds are passed on as bounds.

The target of series [1] is Cytochrome P450 2C19 (Homo sapiens, UniProt P33261). The series is described as follows: Cytochrome panel assay with activity outcomes. Panel member name: p450-cyp2c19 Compounds with AC50 equal or less than 10 uM are considered active. It is filed as functional.
Series [2] concerns the target Cytochrome P450 2D6 (Homo sapiens, UniProt P10635).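 Further: CYP2D6 member of a cytochrome P450 panel assay.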
Series [3] addresses T1, Cytochrome P450 1A2 (Homo sapiens, UniProt P05177).
T1 sequence (P05177 whole entry): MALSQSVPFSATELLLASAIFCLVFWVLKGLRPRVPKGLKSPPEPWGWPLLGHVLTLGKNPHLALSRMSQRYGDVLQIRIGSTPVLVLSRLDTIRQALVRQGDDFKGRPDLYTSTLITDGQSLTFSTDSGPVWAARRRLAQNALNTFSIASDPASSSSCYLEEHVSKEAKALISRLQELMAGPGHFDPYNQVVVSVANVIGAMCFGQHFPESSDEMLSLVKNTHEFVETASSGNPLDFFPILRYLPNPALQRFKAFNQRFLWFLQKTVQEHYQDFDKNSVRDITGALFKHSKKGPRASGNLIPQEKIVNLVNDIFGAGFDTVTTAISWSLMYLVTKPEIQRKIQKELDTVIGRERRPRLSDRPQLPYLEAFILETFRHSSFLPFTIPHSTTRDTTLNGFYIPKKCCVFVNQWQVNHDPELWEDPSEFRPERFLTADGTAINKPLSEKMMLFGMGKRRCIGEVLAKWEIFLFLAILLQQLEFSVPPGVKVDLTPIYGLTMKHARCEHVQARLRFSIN

Series [4] can be described thus: viability of uninfected HEp-2 cells – cell-based, HTS, cytotoxicity control for RSV inhibitor project, dose response (AID 2410). It is filed as functional. The conditions noted are these: human respiratory syncytial virus.
The target of series [5] is Cytochrome P450 2C9 (Homo sapiens, UniProt P11712).
The target in series [6] is T2, Heat shock factor protein 1 (Mus musculus, UniProt P38532).
T2 sequence (P38532 whole entry): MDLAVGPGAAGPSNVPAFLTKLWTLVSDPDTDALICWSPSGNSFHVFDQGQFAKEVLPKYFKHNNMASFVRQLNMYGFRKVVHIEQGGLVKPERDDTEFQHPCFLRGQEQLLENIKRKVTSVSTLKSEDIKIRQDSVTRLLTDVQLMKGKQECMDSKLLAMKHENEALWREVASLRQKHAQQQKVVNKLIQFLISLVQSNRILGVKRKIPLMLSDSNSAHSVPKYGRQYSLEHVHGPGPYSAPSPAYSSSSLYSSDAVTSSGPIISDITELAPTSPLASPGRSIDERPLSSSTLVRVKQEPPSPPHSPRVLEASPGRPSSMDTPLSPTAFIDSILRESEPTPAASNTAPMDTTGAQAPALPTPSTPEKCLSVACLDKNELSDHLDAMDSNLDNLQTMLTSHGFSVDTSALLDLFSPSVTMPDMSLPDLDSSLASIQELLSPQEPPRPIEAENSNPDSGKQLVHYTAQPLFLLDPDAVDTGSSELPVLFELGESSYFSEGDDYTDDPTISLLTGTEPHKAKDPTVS
In words: decrease of HSF1-responsive luciferase luminescence – cell-based, NIH3T3, dose retest, confirmation (AID 2382).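 Further: NIH3T3 fibroblasts with HSF1-driven luciferase reporter stressed by proteasome inhibitor MG132; luminescence from HSF1-driven luciferase expression after 8 hours of MG132 stress.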 It is filed as functional.

The subject of series [7] is Streptococcus sp. 'group A'. In words: Streptococcus pyogenes SK(-)GAS viability under kanamycin – luminescence, BacTiterGlo, confirmation, counter-screen for streptokinase expression inhibitor project, dose response (AID 1900). It counts as functional, organism-based.
The target of series [8] is T3, Streptokinase A (Streptococcus pyogenes serotype M1, UniProt P10520).
T3 sequence (P10520 whole entry): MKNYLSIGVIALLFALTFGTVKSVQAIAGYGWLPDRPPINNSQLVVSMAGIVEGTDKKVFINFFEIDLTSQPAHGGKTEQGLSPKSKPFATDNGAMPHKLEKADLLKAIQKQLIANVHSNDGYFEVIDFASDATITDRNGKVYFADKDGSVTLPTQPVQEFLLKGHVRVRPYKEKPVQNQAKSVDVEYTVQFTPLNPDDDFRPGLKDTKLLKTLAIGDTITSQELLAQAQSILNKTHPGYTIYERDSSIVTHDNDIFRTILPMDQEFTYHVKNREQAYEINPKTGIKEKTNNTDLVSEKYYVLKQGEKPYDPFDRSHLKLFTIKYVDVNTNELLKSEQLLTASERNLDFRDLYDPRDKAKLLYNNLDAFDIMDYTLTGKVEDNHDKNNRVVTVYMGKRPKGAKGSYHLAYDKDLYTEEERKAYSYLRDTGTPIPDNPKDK
The series is described as follows: viability-normalized secreted streptokinase activity reduction – plasminogen activation absorbance, OD405, dose response (AID 1914).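 Further: secreted streptokinase activity via plasminogen activation per viability signal from cell pellet.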 It counts as functional, Streptococcus pyogenes M1 GAS.

The subject of series [9] is Streptococcus. The series is described as follows: GAS UMAA2166 growth inhibition – luminescence, BacTiterGlo, counter-screen for streptokinase expression inhibitor project, dose response (AID 1915).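 Further: potency for reduction of bacterial viability or growth.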 It is filed as functional, organism-based. A general note: The purpose of a counterscreen is to sort out artefacts and off-target activity.
Series [10] relates to H4. In words: Luminescence Cell-Based Dose Response HTS to Identify Activators of 5'UTR Stem-Loop Driven Prion Protein mRNA Translation in H4 Neuroglioblastoma Cells. [Related pubchem assays: 1829 (Project Summary), 1814 (Primary HTS)]. The conditions noted are these: Homo sapiens. It counts as functional.

Cytochrome P450 2D6, sequence (P10635 whole entry): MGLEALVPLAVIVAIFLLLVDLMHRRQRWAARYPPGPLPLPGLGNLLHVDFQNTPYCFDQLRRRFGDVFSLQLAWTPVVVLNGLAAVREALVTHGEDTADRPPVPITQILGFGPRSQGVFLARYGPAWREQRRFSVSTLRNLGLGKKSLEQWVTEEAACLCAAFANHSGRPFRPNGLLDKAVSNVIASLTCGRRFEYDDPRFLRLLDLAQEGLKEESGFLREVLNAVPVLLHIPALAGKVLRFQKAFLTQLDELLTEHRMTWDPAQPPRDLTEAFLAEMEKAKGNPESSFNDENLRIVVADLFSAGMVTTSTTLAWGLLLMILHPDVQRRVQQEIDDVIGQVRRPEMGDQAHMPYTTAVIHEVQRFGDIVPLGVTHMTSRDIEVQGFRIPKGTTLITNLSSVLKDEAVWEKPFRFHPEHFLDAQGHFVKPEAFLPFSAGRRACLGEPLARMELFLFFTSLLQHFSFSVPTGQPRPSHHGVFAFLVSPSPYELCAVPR
Cytochrome P450 2C9, sequence (P11712 whole entry): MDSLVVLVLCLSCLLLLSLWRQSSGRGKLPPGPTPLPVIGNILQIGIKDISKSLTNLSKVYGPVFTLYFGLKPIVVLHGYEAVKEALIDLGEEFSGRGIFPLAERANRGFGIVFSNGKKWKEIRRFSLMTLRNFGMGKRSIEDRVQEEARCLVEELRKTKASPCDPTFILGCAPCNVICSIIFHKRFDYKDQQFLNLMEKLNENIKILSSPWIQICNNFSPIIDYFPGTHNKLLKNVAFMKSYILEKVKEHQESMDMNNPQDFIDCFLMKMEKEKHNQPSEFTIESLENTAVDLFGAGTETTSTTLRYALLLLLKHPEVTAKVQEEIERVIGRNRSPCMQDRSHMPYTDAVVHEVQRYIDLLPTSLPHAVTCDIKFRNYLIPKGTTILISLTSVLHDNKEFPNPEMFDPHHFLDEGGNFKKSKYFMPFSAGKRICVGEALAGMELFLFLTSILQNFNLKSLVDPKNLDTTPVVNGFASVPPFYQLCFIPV
Cytochrome P450 2C19, sequence (P33261 whole entry): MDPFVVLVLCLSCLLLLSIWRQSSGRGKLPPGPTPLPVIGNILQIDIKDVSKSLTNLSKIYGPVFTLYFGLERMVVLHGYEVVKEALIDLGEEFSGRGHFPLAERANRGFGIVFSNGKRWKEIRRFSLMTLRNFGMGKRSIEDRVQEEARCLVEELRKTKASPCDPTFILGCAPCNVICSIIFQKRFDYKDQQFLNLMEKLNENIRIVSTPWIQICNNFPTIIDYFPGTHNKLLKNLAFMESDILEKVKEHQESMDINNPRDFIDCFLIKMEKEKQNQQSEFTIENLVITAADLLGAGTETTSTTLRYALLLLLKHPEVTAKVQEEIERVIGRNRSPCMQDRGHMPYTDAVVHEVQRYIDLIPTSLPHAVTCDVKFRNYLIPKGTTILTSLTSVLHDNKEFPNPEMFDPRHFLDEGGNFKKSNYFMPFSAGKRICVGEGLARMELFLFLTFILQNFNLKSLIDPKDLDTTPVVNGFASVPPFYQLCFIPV

As for `COc1cccc(NC(=O)COC(=O)c2nc3nccc(C)n3n2)c1`, the AC50 was 31.6 µM (inconclusive) in series [1] (read-out: AC50), 22.4 µM (inconclusive) in series [2] and 17.8 µM (inconclusive) in [3]. `COc1ccc(CN2C(=O)CN(C3CCCCCC3)C(=O)C2c2ccc(OC)c(OC)c2)cc1` (configuration not stated): the AC50 in series [3] is 35.5 µM (inconclusive). On to `COc1ccc(C2Nc3ccccc3C(=O)N2Cc2ccco2)cc1COc1ccc([N+](=O)[O-])cc1` (configuration not stated), for which the AC50 in series [2] is 3.98 µM (inconclusive). Turning to `Cc1cc(-c2ccc(Cl)cc2)oc(=O)c1NC(=O)c1ccccc1`, the AC50 in series [1] (read-out: AC50) was 3.55 µM (inconclusive).

In the case of `O=C1c2ccccc2C(=O)N1CCCCN(C(=O)c1cc([N+](=O)[O-])cc([N+](=O)[O-])c1)c1ccc(Cl)cc1`, the CC50 in series [4] is > 50 µM (active). With `CS(=O)(=O)Nc1cccc(-c2nc(NCCN3CCOCC3)c3ccccc3n2)c1`, the AC50 in series [3] was 25.1 µM (inconclusive). Take `O=C(c1cccc(F)c1)N1CCC[C@@]2(CCN(c3cccc(-c4ccccc4)c3)C2)C1`: in series [5], the AC50 was 20 µM (inconclusive). On to `CN=C(S)N1CCN(c2ccc(Cl)c(Cl)c2)CC1`, for which, in series [4], the CC50 is 21.3 µM (active). As to `CC(CO)(CO)/N=C\c1cc(I)cc(I)c1O`, the results for the AC50 in [3] and in [5] were 1.58 µM (inconclusive) and 6.31 µM (inconclusive), respectively. With `N#C/C(=C\c1ccc(N2CCCC2)c([N+](=O)[O-])c1)c1nc2ccccc2[nH]1`, the AC50 in series [3] was 11.2 µM (inconclusive). As for `CN1CCN(c2ncnc3ccc(-c4ccccc4Cl)cc23)CC1`, the AC50 in [2] was 25.1 µM (inconclusive). Regarding `Cc1nc2cc(C(F)(F)F)ccc2n1CCNc1nc(-c2cc(Cl)c(N)c(Cl)c2)cs1`, in [4], the CC50 was 19.7 µM (active). As to `CCCNC(=O)N1N=C(c2ccc(N)cc2)c2cc3c(cc2[C@H]1C)OCO3`, the AC50 in series [2] is 25.1 µM (inconclusive). As for `C=CCc1ccc(OCCOCCOc2cccc3ccc(C)nc23)c(OC)c1`, the CC50 in [4] is 29.6 µM (active).

Turning to `CC(C)C(NS(=O)(=O)c1cccc2nsnc12)C(=O)N1CCc2ccccc2C1` (configuration not stated), the AC50 in series [1] (read-out: AC50) is 6.31 µM (inconclusive); in series [5], 3.55 µM (inconclusive).

Take `COCCCN1C(=O)C(O)=C(C(=O)c2ccc(OC(C)C)c(C)c2)C1c1ccncc1` (configuration not stated): the AC50 is 11.2 µM (inconclusive) in [1] (read-out: AC50) and 35.5 µM (inconclusive) in series [5]. For `CN(CC(=O)Nc1ccc(Cl)cc1)CC(=O)Nc1cccc(Br)c1`, in series [4], the CC50 was 16.2 µM (active).

Turning to `CC(C)OC(=O)c1cc2c(OC[C@@H](O)CNC(C)(C)C)cccc2[nH]1`, the AC50 is 15.8 µM (inconclusive) in [2] and 31.6 µM (inconclusive) in series [3]. `N=C(N)c1ccc(/N=N\c2c(O)ccc3c2[nH]c2ccccc23)cc1`: the AC50 in [2] is 5.01 µM (inconclusive).

In the case of `O=C(c1ccc(N2CCCCC2)c([N+](=O)[O-])c1)N(Cc1ccccc1)c1ccccn1`, in series [5], the AC50 was 7.94 µM (inconclusive). On to `COc1cccc(Cn2c(=O)c(-c3cc(F)cc(F)c3)nc3cnc(N4CCNCC4)nc32)c1`, for which the AC50 in series [1] (read-out: AC50) and in [2] was 39.8 µM (inconclusive) throughout.

Consider `Oc1ccccc1-c1nnc(-c2ccc(C(F)(F)F)cc2)o1`, for which the EC50 in series [6] is > 195 µM (not active). Also, the AC50 in series [1] (read-out: AC50) is 39.8 µM (inconclusive). As for `CC(C)(C)c1ccc(CN(Cc2ccco2)Cc2nnnn2C2CCCC2)cc1`, the values for the EC50 in series [7], in series [8] and in [9] were 5.71 µM (active), 12.7 µM (active) and > 150 µM (not active), respectively. In addition, the AC50 in series [2] was 22.4 µM (inconclusive). In the case of `CCc1nc(N[C@H](C(=O)O)C(C)CC)c2oc3ccccc3c2n1` (some centres not stated), the AC50 result was “inconclusive” in series [1] and 0.00891 µM (inconclusive) in series [5].

As to `C[C@H](CO)NC(=O)[C@H](C)[C@@H]1C[C@@]1(C)[C@@H](NC(=O)OCc1ccccc1)c1ccccc1`, the AC50 in series [5] was 39.8 µM (inconclusive). `C[C@@H](C(=O)Cc1ccc2ccccc2c1)[C@@H]1C[C@@]1(C)[C@@H](NP(=O)(c1ccccc1)c1ccccc1)c1ccccc1`: the AC50 in series [3] was 10 µM (inconclusive).

For `COCCn1c(=O)c(-c2cccs2)nc2cnc(N3CCNCC3)nc21`, the AC50 in series [1] (read-out: AC50) is 25.1 µM (inconclusive). Take `O=[N+]([O-])c1ccc(S(=O)(=O)Nc2cccc(-c3ccc(N4CCOCC4)nn3)c2)cc1`: the CC50 in [4] is > 50 µM (active).

As to `Nc1ccc(-c2ccc(Nc3cc(S(=O)(=O)O)c(N)c4c3C(=O)c3ccccc3C4=O)cc2)c(S(=O)(=O)O)c1`, the AC50 in series [5] is 6.31 µM (inconclusive). Consider `O=C(Nc1cccc(C(F)(F)F)c1)C1CCCN1S(=O)(=O)c1cccc2cccnc12` (configuration not stated), for which the AC50 was 31.6 µM (inconclusive) in [2], 3.16 µM (inconclusive) in [3] and 5.62 µM (inconclusive) in [5]. In the case of `CCCCCn1c(=O)c(C(=O)c2ccccc2)nc2ccccc21`, in series [2], the AC50 was 28.2 µM (inconclusive).

Consider `Cc1cc(N2CCOCC2)nc2ccc(N=C(S)N3CCCCC3C)cc12` (configuration not stated), for which the CC50 in series [4] was 18.2 µM (active).

Regarding `CCn1c(C)[n+](CCCS(=O)(=O)[O-])c2cc(Cl)c(Cl)cc21`, the AC50 entry in series [1] is listed as “inconclusive”. On to `Cc1cc2c(cc1S(=O)(=O)N1CCN(c3ccc(Cl)cc3)CC1)OCCN2C`, for which the CC50 in series [4] is 41 µM (active). For `O=c1c(-c2cc(F)cc(F)c2)nc2cnc(N3CCNCC3)nc2n1Cc1ccc(F)cc1`, the AC50 in [5] is 12.6 µM (inconclusive).

For the compound `COc1ccc(CNc2ncncc2-c2c(C)noc2C)c(OC)c1`, the AC50 in series [3] was 25.1 µM (inconclusive).

Regarding `O=C(CP(=O)(c1ccccc1)c1ccccc1)Nn1cnnc1`, in series [1], the AC50 entry is “inconclusive”. For the compound `CN(C)CCNC(=O)C(C(=O)c1ccc(F)cc1)n1ccccc1=O` (configuration not stated), in [3], the AC50 was 0.631 µM (inconclusive). For the compound `COCCNC(=S)N/N=C(\C)c1ccc(OC(F)F)cc1`, the CC50 in [4] was > 50 µM (active).

Regarding `Cc1ccc(/C=N/n2c(S)nnc2-c2cccs2)cc1`, the AC50 in series [1] (read-out: AC50) was 3.55 µM (inconclusive); in [2] it was 5.01 µM (inconclusive). Take `CC(/C=N/NC(=O)c1cccc([N+](=O)[O-])c1)=C\c1ccccc1`: the AC50 in series [3] is 1.78 µM (inconclusive). On to `Cc1nc(N/N=C/c2ccc(O)cc2)c2cnn(-c3ccccc3)c2n1`, for which, in series [4], the CC50 is 42.8 µM (active). `CC1(C)Cc2c(sc(NC(=O)Nc3ccccc3)c2C(N)=O)CO1`: the half-maximal effective concentration (EC50) in series [10] is given as > 120 µM (not active). With `O=C(c1ccc(F)cc1)C1CCN(CCn2c(=S)[nH]c3ccccc3c2=O)CC1` [ALTANSERIN], the AC50 in series [2] is 10 µM (inconclusive); in series [3] it was 15.8 µM (inconclusive); in series [5], 25.1 µM (inconclusive). Consider `CN(C)CC/C=C1\c2ccccc2CSc2ccccc21` [DOTHIEPIN], for which the concentration at half-maximal activity (AC50) in [2] is 7.94 µM (inconclusive).
